Data as given in patent US10538555B2, “Macrocyclic inhibitors of the PD-1/PD-L1 and CD80(B7-1)/PD-L1 protein/protein interactions” (BRISTOL-MYERS SQUIBB COMPANY, priority 2014, dated 2020).
Where a SMILES comes first, the peptide text is derived from it. Bridges are numbered along the chain shown (N, C = ends). [ ]: non-standard residue; d: D form. ξ: configuration not given here. Bta = N[C@@H](Cc1csc2ccccc12)C(=O)O; Hyp = O=C(O)[C@@H]1C[C@@H](O)CN1; NMeNle = CCCC[C@H](NC)C(=O)O; d(hSer) = N[C@H](CCO)C(=O)O; hSer = N[C@@H](CCO)C(=O)O; NMeA = CN[C@@H](C)C(=O)O; ξC = NC(CS)C(=O)O

Target: T1, Human PD-L1/PD-1 (Homo sapiens, UniProt Q9NZQ7)
T1 construct: TVMV protease cleavage site (C); made in house; host or cells: HEK293T cells
Assay: HTRF Human PD-L1/PD-1 binding assay (PD-1-Ig/PD-L1-His)
Conditions: PD-L1-His 10 nM, PD-1-Ig 20 nM; class symbol; read-out: HTRF Human PD-L1/PD-1 Binding Assay IC50 Range
Outline: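 Inhibitors were preincubated 15 min with human PD-L1(18-239)-His (10 nM final), then PD-1(25-167)-Ig (20 nM final) was added for 15 min in dPBS/0.1% BSA/0.05% Tween-20. Eu-cryptate anti-Ig (1 nM) and APC anti-His (20 nM) were added; 665/620 nm ratio read after 30 min.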

T1 sequence (Q9NZQ7 with tags, fused parts or gaps): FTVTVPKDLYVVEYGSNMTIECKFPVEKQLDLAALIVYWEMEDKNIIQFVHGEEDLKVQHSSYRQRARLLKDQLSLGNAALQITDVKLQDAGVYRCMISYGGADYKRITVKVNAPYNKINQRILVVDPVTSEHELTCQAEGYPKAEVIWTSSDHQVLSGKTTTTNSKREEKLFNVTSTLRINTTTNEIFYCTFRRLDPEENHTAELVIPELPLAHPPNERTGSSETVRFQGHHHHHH

CCCC[C@H]1C(=O)N(C)[C@@H](C)C(=O)N[C@@H](CCCNC(=N)N)C(=O)NC(C(=O)NCC(N)=O)CSCC(=O)N[C@@H](Cc2ccc(O)cc2)C(=O)N(C)[C@@H](C)C(=O)N[C@@H](CC(N)=O)C(=O)N2CCC[C@H]2C(=O)N[C@@H](Cc2cnc[nH]2)C(=O)N[C@H](CO)C(=O)N2C[C@H](O)C[C@H]2C(=O)N[C@@H](Cc2c[nH]c3ccccc23)C(=O)N[C@@H](CO)C(=O)N[C@@H](Cc2csc3ccccc23)C(=O)N1C (stereo partly shown) [Example 9120] ({CH2CO}-Y[NMeA]NPH[dS][Hyp]WS[Bta][NMeNle][NMeA]R[ξC]G-NH2; thioether N-14)
IC50: 10 to 99.9 nM

CCCC[C@H]1C(=O)N(C)[C@@H](C)C(=O)N[C@@H](CCCNC(=N)N)C(=O)NC(C(=O)N[C@@H](CO)C(N)=O)CSCC(=O)N[C@@H](Cc2ccc(O)cc2)C(=O)N(C)[C@@H](C)C(=O)N[C@@H](CC(N)=O)C(=O)N2CCC[C@H]2C(=O)N[C@@H](CO)C(=O)N[C@H](CC(C)C)C(=O)N2CCC[C@H]2C(=O)N[C@@H](Cc2c[nH]c3ccccc23)C(=O)N[C@@H](CO)C(=O)N[C@@H](Cc2c[nH]c3ccccc23)C(=O)N1C (stereo partly drawn) [Example 9121] ({CH2CO}-Y[NMeA]NPS[dL]PWSW[NMeNle][NMeA]R[ξC]S-NH2; thioether N-14)
IC50: 10 to 99.9 nM

CCCC[C@H]1C(=O)N(C)[C@@H](C)C(=O)N[C@@H](CCCNC(=N)N)C(=O)NC(C(=O)N[C@@H](CO)C(N)=O)CSCC(=O)N[C@@H](Cc2ccc(O)cc2)C(=O)N(C)[C@@H](C)C(=O)N[C@@H](CC(N)=O)C(=O)N2CCC[C@H]2C(=O)N[C@@H](CO)C(=O)N[C@H](CC(C)C)C(=O)N2CCC[C@H]2C(=O)N[C@@H](Cc2c[nH]c3ccccc23)C(=O)N[C@@H](CO)C(=O)N[C@@H](Cc2csc3ccccc23)C(=O)N1C (stereo partly drawn) [Example 9122] ({CH2CO}-Y[NMeA]NPS[dL]PWS[Bta][NMeNle][NMeA]R[ξC]S-NH2; thioether N-14)
IC50: 10 to 99.9 nM

CCCC[C@H]1C(=O)N(C)[C@@H](C)C(=O)N[C@@H](CCCNC(=N)N)C(=O)NC(C(=O)N[C@@H](CO)C(N)=O)CSCC(=O)N[C@@H](Cc2ccc(O)cc2)C(=O)N(C)[C@@H](C)C(=O)N[C@@H](CC(N)=O)C(=O)N2CCC[C@H]2C(=O)N[C@@H](CO)C(=O)N[C@H](CC(C)C)C(=O)N2C[C@H](O)C[C@H]2C(=O)N[C@@H](Cc2c[nH]c3ccccc23)C(=O)N[C@@H](CO)C(=O)N[C@@H](Cc2c[nH]c3ccccc23)C(=O)N1C (stereo partly drawn) [Example 9123] ({CH2CO}-Y[NMeA]NPS[dL][Hyp]WSW[NMeNle][NMeA]R[ξC]S-NH2; thioether N-14)
IC50: 1 to 9.9 nM

CCCC[C@H]1C(=O)N(C)[C@@H](C)C(=O)N[C@@H](CCCNC(=N)N)C(=O)NC(C(=O)N[C@@H](CO)C(N)=O)CSCC(=O)N[C@@H](Cc2ccc(O)cc2)C(=O)N(C)[C@@H](C)C(=O)N[C@@H](CC(N)=O)C(=O)N2CCC[C@H]2C(=O)N[C@@H](CO)C(=O)N[C@H](CC(C)C)C(=O)N2C[C@H](O)C[C@H]2C(=O)N[C@@H](Cc2c[nH]c3ccccc23)C(=O)N[C@@H](CO)C(=O)N[C@@H](Cc2csc3ccccc23)C(=O)N1C (stereo partly drawn) [Example 9124] ({CH2CO}-Y[NMeA]NPS[dL][Hyp]WS[Bta][NMeNle][NMeA]R[ξC]S-NH2; thioether N-14)
IC50: 10 to 99.9 nM

CCCC[C@H]1C(=O)N(C)[C@@H](CCCC)C(=O)N[C@@H](CCCNC(=N)N)C(=O)NC(C(=O)NCC(N)=O)CSCC(=O)N[C@@H](Cc2ccc(O)cc2)C(=O)N(C)[C@@H](C)C(=O)N[C@@H](CC(N)=O)C(=O)N2CCC[C@H]2C(=O)N[C@@H](Cc2cnc[nH]2)C(=O)N[C@H](CCO)C(=O)N2C[C@H](O)C[C@H]2C(=O)N[C@@H](Cc2c[nH]c3ccccc23)C(=O)N[C@@H](CO)C(=O)N[C@@H](Cc2c[nH]c3ccccc23)C(=O)N1C (stereo partly shown) [Example 9125] ({CH2CO}-Y[NMeA]NPH[d(hSer)][Hyp]WSW[NMeNle][NMeNle]R[ξC]G-NH2; thioether N-14)
IC50: 10 to 99.9 nM

CCCC[C@H]1C(=O)N(C)[C@@H](CCCC)C(=O)N[C@@H](CCCNC(=N)N)C(=O)NC(C(=O)NCC(N)=O)CSCC(=O)N[C@@H](Cc2ccc(O)cc2)C(=O)N(C)[C@@H](C)C(=O)N[C@@H](CC(N)=O)C(=O)N2CCC[C@H]2C(=O)N[C@@H](Cc2cnc[nH]2)C(=O)N[C@@H](CCO)C(=O)N2CCC[C@H]2C(=O)N[C@@H](Cc2c[nH]c3ccccc23)C(=O)N[C@@H](CO)C(=O)N[C@@H](Cc2csc3ccccc23)C(=O)N1C (stereo partly shown) [Example 9126] ({CH2CO}-Y[NMeA]NPH[hSer]PWS[Bta][NMeNle][NMeNle]R[ξC]G-NH2; thioether N-14)
IC50: 1 to 9.9 nM

CCCC[C@H]1C(=O)N(C)[C@@H](CCCC)C(=O)N[C@@H](CCCNC(=N)N)C(=O)NC(C(=O)NCC(N)=O)CSCC(=O)N[C@@H](Cc2ccc(O)cc2)C(=O)N(C)[C@@H](C)C(=O)N[C@@H](CC(N)=O)C(=O)N2CCC[C@H]2C(=O)N[C@@H](CCO)C(=O)N[C@@H](CC(C)C)C(=O)N2C[C@H](O)C[C@H]2C(=O)N[C@@H](Cc2c[nH]c3ccccc23)C(=O)N[C@@H](CO)C(=O)N[C@@H](Cc2c[nH]c3ccccc23)C(=O)N1C (stereo partly shown) [Example 9127] ({CH2CO}-Y[NMeA]NP[hSer]L[Hyp]WSW[NMeNle][NMeNle]R[ξC]G-NH2; thioether N-14)
IC50: 1 to 9.9 nM

CCCC[C@H]1C(=O)N(C)[C@@H](CCCC)C(=O)N[C@@H](CCCNC(=N)N)C(=O)NC(C(=O)NCC(N)=O)CSCC(=O)N[C@@H](Cc2ccc(O)cc2)C(=O)N(C)[C@@H](C)C(=O)N[C@@H](CC(N)=O)C(=O)N2CCC[C@H]2C(=O)N[C@@H](CC(N)=O)C(=O)N[C@@H](CC(C)C)C(=O)N2CCC[C@H]2C(=O)N[C@@H](Cc2c[nH]c3ccccc23)C(=O)N[C@@H](CCO)C(=O)N[C@@H](Cc2c[nH]c3ccccc23)C(=O)N1C (stereo partly shown) [Example 9128] ({CH2CO}-Y[NMeA]NPNLPW[hSer]W[NMeNle][NMeNle]R[ξC]G-NH2; thioether N-14)
IC50: 1 to 9.9 nM

CCCC[C@H]1C(=O)N(C)[C@@H](CCCC)C(=O)N[C@@H](CCCNC(=N)N)C(=O)NC(C(=O)NCC(N)=O)CSCC(=O)N[C@@H](Cc2ccc(O)cc2)C(=O)N(C)[C@@H](C)C(=O)N[C@@H](CC(N)=O)C(=O)N2CCC[C@H]2C(=O)N[C@@H](CC(N)=O)C(=O)N[C@@H](CC(C)C)C(=O)N2CCC[C@H]2C(=O)N[C@@H](Cc2c[nH]c3ccccc23)C(=O)N[C@@H](CCO)C(=O)N[C@@H](Cc2csc3ccccc23)C(=O)N1C (stereo partly shown) [Example 9129] ({CH2CO}-Y[NMeA]NPNLPW[hSer][Bta][NMeNle][NMeNle]R[ξC]G-NH2; thioether N-14)
IC50: 1 to 9.9 nM

CCCC[C@H]1C(=O)N(C)[C@@H](CCCC)C(=O)N[C@@H](CCCNC(=N)N)C(=O)NC(C(=O)NCC(N)=O)CSCC(=O)N[C@@H](Cc2ccc(O)cc2)C(=O)N(C)[C@@H](C)C(=O)N[C@@H](CC(N)=O)C(=O)N2CCC[C@H]2C(=O)N[C@@H](CC(N)=O)C(=O)N[C@@H](CC(C)C)C(=O)N2C[C@H](O)C[C@H]2C(=O)N[C@@H](Cc2c[nH]c3ccccc23)C(=O)N[C@@H](CCO)C(=O)N[C@@H](Cc2c[nH]c3ccccc23)C(=O)N1C (stereo partly shown) [Example 9130] ({CH2CO}-Y[NMeA]NPNL[Hyp]W[hSer]W[NMeNle][NMeNle]R[ξC]G-NH2; thioether N-14)
IC50: 1 to 9.9 nM

CCCC[C@H]1C(=O)N(C)[C@@H](CCCC)C(=O)N[C@@H](CCCNC(=N)N)C(=O)NC(C(=O)NCC(N)=O)CSCC(=O)N[C@@H](Cc2ccc(O)cc2)C(=O)N(C)[C@@H](C)C(=O)N[C@@H](CC(N)=O)C(=O)N2CCC[C@H]2C(=O)N[C@@H](CC(N)=O)C(=O)N[C@@H](CC(C)C)C(=O)N2C[C@H](O)C[C@H]2C(=O)N[C@@H](Cc2c[nH]c3ccccc23)C(=O)N[C@@H](CCO)C(=O)N[C@@H](Cc2csc3ccccc23)C(=O)N1C (stereo partly shown) [Example 9131] ({CH2CO}-Y[NMeA]NPNL[Hyp]W[hSer][Bta][NMeNle][NMeNle]R[ξC]G-NH2; thioether N-14)
IC50: 1 to 9.9 nM

CCCC[C@H]1C(=O)N(C)[C@@H](CCCC)C(=O)N[C@@H](C)C(=O)NC(C(=O)NCC(N)=O)CSCC(=O)N[C@@H](Cc2ccc(O)cc2)C(=O)N(C)[C@@H](C)C(=O)N[C@@H](CC(N)=O)C(=O)N2CCC[C@H]2C(=O)N[C@@H](CC(N)=O)C(=O)N[C@@H](CC(C)C)C(=O)N2CCC[C@H]2C(=O)N[C@@H](Cc2c[nH]c3ccccc23)C(=O)N[C@@H](CO)C(=O)N[C@@H](Cc2c[nH]c3ccccc23)C(=O)N1C (stereo partly shown) [Example 9132] ({CH2CO}-Y[NMeA]NPNLPWSW[NMeNle][NMeNle]A[ξC]G-NH2; thioether N-14)
IC50: 10 to 99.9 nM

CCCC[C@H]1C(=O)N(C)[C@@H](CCCC)C(=O)N[C@@H](C)C(=O)NC(C(=O)NCC(N)=O)CSCC(=O)N[C@@H](Cc2ccc(O)cc2)C(=O)N(C)[C@@H](C)C(=O)N[C@@H](CC(N)=O)C(=O)N2CCC[C@H]2C(=O)N[C@@H](CC(N)=O)C(=O)N[C@@H](CC(C)C)C(=O)N2CCC[C@H]2C(=O)N[C@@H](Cc2c[nH]c3ccccc23)C(=O)N[C@@H](CO)C(=O)N[C@@H](Cc2csc3ccccc23)C(=O)N1C (stereo partly shown) [Example 9133] ({CH2CO}-Y[NMeA]NPNLPWS[Bta][NMeNle][NMeNle]A[ξC]G-NH2; thioether N-14)
IC50: 1 to 9.9 nM

CCCC[C@H]1C(=O)N(C)[C@@H](CCCC)C(=O)N[C@@H](C)C(=O)NC(C(=O)NCC(N)=O)CSCC(=O)N[C@@H](Cc2ccc(O)cc2)C(=O)N(C)[C@@H](C)C(=O)N[C@@H](CC(N)=O)C(=O)N2CCC[C@H]2C(=O)N[C@@H](CC(N)=O)C(=O)N[C@@H](CC(C)C)C(=O)N2C[C@H](O)C[C@H]2C(=O)N[C@@H](Cc2c[nH]c3ccccc23)C(=O)N[C@@H](CO)C(=O)N[C@@H](Cc2c[nH]c3ccccc23)C(=O)N1C (stereo partly shown) [Example 9134]
IC50: 1 to 9.9 nM

CCCC[C@H]1C(=O)N(C)[C@@H](CCCC)C(=O)N[C@@H](C)C(=O)NC(C(=O)NCC(N)=O)CSCC(=O)N[C@@H](Cc2ccc(O)cc2)C(=O)N(C)[C@@H](C)C(=O)N[C@@H](CC(N)=O)C(=O)N2CCC[C@H]2C(=O)N[C@@H](CC(N)=O)C(=O)N[C@@H](CC(C)C)C(=O)N2C[C@H](O)C[C@H]2C(=O)N[C@@H](Cc2c[nH]c3ccccc23)C(=O)N[C@@H](CO)C(=O)N[C@@H](Cc2csc3ccccc23)C(=O)N1C (stereo partly shown) [Example 9135] ({CH2CO}-Y[NMeA]NPNL[Hyp]WS[Bta][NMeNle][NMeNle]A[ξC]G-NH2; thioether N-14)
IC50: 1 to 9.9 nM
